Laboratory results published in patent US7163920B2, “Peptide with osteogenic activity” (Ethicon, Inc., priority 2003, dated 2007).

Columns and labels:
[1] = Elman's test (DTNB) for free sulfhydryl groups, with UV measurement; type: physicochemical; settings: for Free Sulfhydryl Group Content, Optical density At 412 nM: 0.5 mM peptide in Elman's reaction buffer pH 8.0
Experimental: (§1) The formation of inter- or intra-chain disulfide bonds was determined by Elman's test and a reverse phase HPLC method. The peptide represented by SEQ. ID NO: 1 was dissolved in 50 mM sodium acetate, pH 5.2, containing 1 mM EDTA to a stock solution of 10 mM. The stock solution was further diluted with either 50 mM sodium acetate buffer or Elman's reaction buffer ([…], pH 8.0, containing 1 mM EDTA) to a final concentration of 0.5 mM. Samples prepared with sodium acetate buffer were kept at 5° C. for HPLC analysis later.
The reagent used in Elman's test is 5,5′-dithio-bis-(2-nitrobenzoic acid), also know as DTNB. […] Sulfhydryl groups can be quantitated in a sample by comparison to a standard curve prepared with know concentrations of sulfhydryl-containing compound such as cysteine. The measurement of free sulfhydryl group was performed when the peptide was freshly prepared and after 24 hours incubation at 37° C. The incubation step was designed to mimic the cell culture conditions and to create conditions for inter- or intra-chain disulfide bond formations. To examine the integrity of the peptide after incubation, a UV measurement was performed when the peptide (SEQ. ID NO: 1) was freshly prepared and after 24 hours incubation.

[2] = tested on: Primary human osteoblasts; test: 3H-thymidine incorporation, proliferative response of human osteoblasts; type: cell-based
Experimental: (§2) Primary human osteoblasts were trypsinized and cell counts determined. Cells were resuspended at a concentration of 0.5×10^5 cells/ml in growth medium [Dulbeccos Modified Eagles Medium (DMEM) 10% Fetal Bovine Serum (FBS), 100 units Penicillin and 50 μg/ml Streptomycin]. A 100 μl aliquot of cells was added to each well in a 96 well dish. Cells were allowed to adhere for 24 hours and then refed with DMEM containing 0.5% FBS for 24 hours. Thereafter, several concentrations (10, 100, 500 μg/ml final concentration) of peptide in DMEM containing 0.5% FBS were added to different wells in quadruplicate. These plates were incubated in a cell culture incubator at 37° C. 5% CO2 for 48 hours. Subsequently, 0.1 μCi of ^3H-thymidine was added to each well, and incubated at 37° C. for an additional 3 hours prior to harvest. Cells were lysed and the lysate was placed in scintillation fluid and the amount of thymidine incorporated was determined by beta counting (in Counts Per Minute, or CPM).
To help determine a maximal stimulation of cell proliferation, the study was repeated with concentrations of 10, 50, 100, and 200 μg/ml final concentration) of the peptide represented by SEQ. ID NO: 1 in DMEM containing 0.5% FBS.
The experiments were set up as described for Example 1, with proliferation assessed by measurement of thymidine incorporation into newly synthesized DNA. […] These plates were incubated at 37° C. in 5% CO2 for 48 hours and processed for analysis as mentioned in Example 1.

[3] = Reverse phase HPLC for peptide integrity after disulfide bond formation; type: physicochemical
Experimental: as §1
To determine the integrity of the peptide of SEQ. ID NO: 1 after disulfide bond formations, samples in sodium acetate buffer (1G1) and in Elman's reaction buffer (1G2) were subjected to reverse phase HPLC after a 24 hour incubation at 37° C. In particular, a 0–80% acetonitrile gradient in 0.1% TFA was used over 15 minutes at a flow rate of 2 ml/min on a Vydac C-18 column. Detection was at 214 nm.

[4] = tested on: human fibroblasts; test: 3H-thymidine incorporation, proliferative response of human fibroblasts; type: cell-based; settings: for 3H-Thymidine Incorporation Into Fibroblasts: Table 4 (human fibroblasts per Example 4), 48 hours
Experimental: as §2
The effect of the peptide […] (SEQ. ID NO: 1) on stimulation of human fibroblast proliferation was assessed by thymidine incorporation as described above. The experiments were set up as detailed in Example 1. Following serum starvation, cells were treated with the peptide at concentration of 10, 100, and 500 μg/ml of peptide in DMEM containing 0.5% FBS. These plates were incubated at 37° C. in 5% CO2 for 48 hours and processed for analysis as described in Example 1.

[5] = tested on: human chondrocytes; test: 3H-thymidine incorporation, proliferative response of human chondrocytes; type: cell-based; settings: for 3H-Thymidine Incorporation Into Chondrocytes: Table 3, 48 hours
Experimental: as §2
The effect of the peptide […] (SEQ. ID NO: 1) on stimulation of human chondrocyte proliferation was assessed by thymidine incorporation as described above. The experiments were set up as detailed in Example 1. Following serum starvation, cells were treated with the peptide at concentration of 10, 100, and 500 μg/ml of peptide in DMEM containing 0.5% FBS. These plates were incubated at 37° C. in 5% CO2 for 48 hours and processed for analysis as described in Example 1.

[6] = after 24 hrs incubation at 37° C.

## CGGGRWCG (synthesized primer) [ID NO: 1, synthesized by Invitrogen Corporation]
[1]; after 24 hour incubation at 37° C., 412 nM
  free sulfhydryl group content after incubation: reduced significantly
[1]; [6]
  Optical density At 280 nM (UV measurement, integrity of the peptide): 2.037
  Free Sulfhydryl Group Content, Optical density At 412 nM: 0.011
[1]; fresh vs 24 hour old samples
  change of absorbance at 280 nM: did not change
[1]; freshly prepared
  Optical density At 280 nM (UV measurement, integrity of the peptide): 2.127
  Free Sulfhydryl Group Content, Optical density At 412 nM: 0.71
[2]; Table 1A, peptide 0 μg/ml, DMEM 0.5% FBS, 48 hours
  3H-Thymidine Incorporation Into Osteoblasts: 591 +/− 39 CPM
[2]; Table 1A, peptide 100 μg/ml
  stimulation of proliferation as compared to controls treated with 0.1% BSA: 2.5 fold
[2]; Table 1A, peptide 100 μg/ml, DMEM 0.5% FBS, 48 hours
  3H-Thymidine Incorporation Into Osteoblasts: 1228 +/− 157 CPM
[2]; Table 1A, peptide 500 μg/ml
  stimulation of osteoblast proliferation: no statistical stimulation
[2]; Table 1A, peptide 500 μg/ml, DMEM 0.5% FBS, 48 hours
  3H-Thymidine Incorporation Into Osteoblasts: 629 +/− 46 CPM
[2]; Table 1B (repeat study), peptide 10 μg/ml
  3H-Thymidine Incorporation Into Osteoblasts: 807 +/− 45 CPM
[2]; Table 1B (repeat study), peptide 50 μg/ml
  3H-Thymidine Incorporation Into Osteoblasts: 948 +/− 62 CPM
[2]; Table 1B (repeat study), peptide 100 μg/ml
  3H-Thymidine Incorporation Into Osteoblasts: 1150 +/− 37 CPM
[2]; Table 1B (repeat study), peptide 200 μg/ml
  3H-Thymidine Incorporation Into Osteoblasts: 1565 +/− 98 CPM
[2]; Table 1B, 10-200 μg/ml tested
  concentration of maximal stimulation of proliferation (dose dependant): 200 µg/mL
[2]; Table 1B, maximal stimulation at 200 μg/ml vs 10% FBS
  stimulation of proliferation relative to cells cultured in the presence of serum: approximately 75%
[2]; Table 2 (Example 2), peptide 200 ug/ml
  3H-Thymidine Incorporation Into Osteoblasts: 3446 +/− 333 CPM
[2]; Table 2, peptide 200 ug/ml
  stimulation of osteoblast proliferation (fold, words): two fold
[3]; Elman's reaction buffer pH 8.0 (1G2), 24 hour incubation at 37° C.
  disulfide structure formed, reverse phase HPLC: formed intra-chain disulfide bonds (ring structure) and not a higher lever structure
[3]; after 24 hours incubation at 37° C.
  integrity of the peptide by reverse phase HPLC: intact
[3]; sodium acetate buffer pH 5.2 (1G1), 24 hours incubation
  sulfhydryl state, reverse phase HPLC: predominately contained free sulfhydryl groups
[4]; 10, 100, and 500 μg/ml
  stimulation of proliferation of human fibroblasts: did not stimulate proliferation
[4]; peptide 10 μg/ml
  3H-Thymidine Incorporation Into Fibroblasts: 1281 +/− 86 CPM
[4]; peptide 100 μg/ml
  3H-Thymidine Incorporation Into Fibroblasts: 1103 +/− 76 CPM
[4]; peptide 500 μg/m1
  3H-Thymidine Incorporation Into Fibroblasts: 1088 +/− 64 CPM
[5]; 10, 100, and 500 μg/ml
  stimulation of proliferation of human chondrocytes: did not stimulate proliferation
[5]; peptide 10 μg/ml
  3H-Thymidine Incorporation Into Chondrocytes: 803 +/− 96 CPM
[5]; peptide 100 μg/ml
  3H-Thymidine Incorporation Into Chondrocytes: 726 +/− 88 CPM
[5]; peptide 500 μg/ml
  3H-Thymidine Incorporation Into Chondrocytes: 640 +/− 80 CPM
